Results published in patent publication US20110130425A1, “Use of H3 Histaminergic Agonists for the Treatment of Addiction to Drugs of Abuse” (priority 2009, published 2011).
Entries after “also recorded” stand apart in the source; their conditions may differ.

What was measured:
[1] = system: nicotine seeking behavior; experiment: Extinction and reinstatement of nicotine seeking, mouse intravenous operant self-administration; format: in vivo, C57B16/J mice; conditions: L-histidine 1 g/kg or 2 g/kg; mice
Procedure: L-Histidine solution: L-Histidine (Sigma, H-8000) at a 155.15 g/mol concentration in 0.34 M phosphoric acid is prepared as follows. 1.5 g L-histidine are dissolved in 12 ml of 0.34 M phosphoric acid to obtain a 0.8 M solution of L-histidine at approximately pH 6. pH is verified and 0.1 g of NaCl added to a final concentration of 0.9%. Finally, the L-histidine solution is sterilized by filtration.
Animals: Male C57B16/J mice (Charles River, France) are housed individually in controlled laboratory conditions with the temperature maintained at 21±1° C., humidity at 55±10%, and light reversal cycle (light on at 20.00 h, light off at 08.00 h). Mice are tested during the dark phase of a light reversal cycle. Behavioural tests and animal care are conducted in accordance with the standard ethical guidelines (National Institutes of Health 1995; European Communities Directive 86/609 EEC) and the protocols are approved by the local ethical committee (CEEA-PRBB).
Apparatus: The self-administration experiments are conducted in mouse operant chambers (Model ENV-307A-CT, Medical Associates, Georgia, VT, USA). The experimental chambers are equipped with a house light, ventilator fan, drug infusion pump, liquid swivel with counterbalanced arm, and two manipulanda with cue lights that are located on either side of a food dipper. The manipulanda are holes (1.2 cm diameter). […]
The catheter is flushed daily with a saline solution containing heparin (30 UI/mL) in order to maintain its patency. The patency of intravenous catheters is evaluated periodically (approximately every 6 days) and whenever drug self-administration behavior appears to deviate dramatically from that observed previously. Patency is evaluated by the infusion of 0.1 ml of thiobarbital (5 mg/ml) through the catheter. […]
L-Histidine dosage: The first L-histidine dose is 1 g/kg. […] Dosage for other H3 histaminergic agonists or H3 histaminergic agonist precursors is determined considering the pharmacokinetic and toxicological characteristics of the compound. […]

[2] = system: relapse into cocaine seeking; experiment: Relapse phase: rehabilitation test, relapse induced by a single dose of cocaine; format: in vivo, rat; conditions: L-histidine 500 mg/kg i.p. one hour before; cocaine 0.5 mg/kg; vs saline; rats
From the text: III. Relapse Phase: The relapse phase is studied by using a rehabilitation test. In this phase, the desire of the rats for the drug is again induced by the administration of a single dose of drug. At this instant, the rat again feels the desire to obtain the drug, and so it again begins to press on the lever to obtain the drug, but the drug is not available to the animal.
The behavior of the rats was also studied during the relapse phase, after the animals had gone through the extinction phase. In the extinction phase, the animals received no reward (dose of cocaine) when they pressed the lever. After a minimum of six extinction sessions, lasting 2 hours each session, carried out on consecutive days, the lever-pressing behavior of the rats diminished at least 20 times in comparison to the start of the extinction sessions.
When the number of times that the rats pressed the lever decreased, the animals were subjected to 4 hour rehabilitation sessions (i.e., relapse sessions). These rehabilitation sessions consisted initially of extinction sessions of 3 hours, followed by the automatic release, by an injection, of a saline solution or different doses of cocaine. During the fourth hour, the behavior of the animals was studied in regard to the number of times that they pressed the lever after the administration of the different doses of cocaine (0 mg/kg, 0.5 mg/kg and 2 mg/kg). The number of times that the lever was pressed increased in proportion to the dose of cocaine administered (cocaine at 0.5 mg/kg or 2 mg/kg administered intravenously, or saline in controls) (FIG. 8). However, this increase in the number of times that the animals pressed the lever was not rewarded with the administration of more cocaine. The number of times that the rats pressed the lever was indicative of the rat's need to find the drug. Even so, the pressing of the lever was not rewarded with more cocaine, which differentiates this stage from that corresponding to self-administration. […]

N[C@@H](Cc1c[nH]cn1)C(=O)O [L-histidine]
cue-induced reinstatement of nicotine seeking [1]: decreases cue-induced reinstatement | number of sessions required to achieve the extinction criteria (nicotine) [1]: shortens the number of sessions | responding during the first extinction session (nicotine) [1]: decreases or delays responding | lever pressing after relapse induced by a single dose of cocaine [2]: caused a decrease in the pressing on the lever; also recorded: diminished significantly
